Laboratory results taken from the RepoRT retention time repository.

Assay: Thermo Scientific Acclaim RSLC 120 C18, 100 × 2.1 mm, 2.2 µm, 30 °C, 0.2 to 0.48 mL/min, estimated dead time 1.1 min; A: 90% water + 10% methanol + 5 mM ammonium acetate; B: methanol + 5 mM ammonium acetate; gradient (min/%B) 0.1/1 3/39 14/99.9 16/99.9
Settings: stereoisomer not certain

| Compound | LC retention time |
| --- | --- |
| CC(C)(c1ccc(O)cc1)c1ccc(O)cc1 | 8.49 min |
| CCOP(=S)(OCC)Oc1cnccn1 | 8.03 min |
| Cc1ccc(NC(=O)NC(C)(C)c2ccccc2)cc1 | 9.64 min |
| CCOP(=S)(OCC)SCS(=O)(=O)C(C)(C)C | 8.98 min |
| COC(=O)NS(=O)(=O)c1ccc(N)cc1 | 1.46 min |
| O=C(O)C(c1ccccc1)C1CCCCN1 (stereo not drawn) | 5.27 min |
| CC12CCC3C(CCC4=C(O)C(=O)CCC43C)C1CCC2=O (stereo not drawn) | 6.61 min |
| CC12C=CC3=C4CCC(=O)C=C4CCC3C1CCC2O (stereo not drawn) | 9.17 min |
| CCOP(=S)(NC(C)C)Oc1ccccc1C(=O)OC(C)C (stereo not drawn) | 11.2 min |
| CC(C(=O)O)c1ccc(N2Cc3ccccc3C2=O)cc1 (stereo not drawn) | 6.23 min |
| CCCCCc1cc(O)c2c(c1)OC(C)(C)C1CCC(CO)=CC21 (stereo not drawn) | 12.3 min |
| CCNC1CC(C)S(=O)(=O)c2sc(S(N)(=O)=O)cc21 (stereo not drawn) | 4.63 min |
| CNC(=O)Oc1cccc2ccccc12 | 7.42 min |
| O=[N+]([O-])c1ccc(O)c([N+](=O)[O-])c1 | 4.5 min |
| CCOP(=O)(NC(C)C)Oc1ccc(S(C)(=O)=O)c(C)c1 (stereo not drawn) | 7.17 min |
| CCCC(C)C1(CC)C(=O)NC(=S)NC1=O (stereo not drawn) | 8.63 min |
| CC1=CC(=O)CC2CCC3C4CCC(O)C4(C)CCC3C12C (stereo not drawn) | 13.8 min |
| CCOC(=O)Nc1cccc(OC(=O)Nc2ccccc2)c1 | 8.53 min |
| CNCC(O)c1ccc(O)cc1 (stereo not drawn) | 2.26 min |

| Compound | LC retention time |
| --- | --- |
| CCC1(c2cccc(O)c2)CCCCN(C)C1 (stereo not drawn) | 6.47 min |
| O=c1[nH]c(=O)[nH]c(=O)[nH]1 | 1.34 min |
| CCC(C(=O)O)C1CCC(C)C(C(C)C(O)C(C)C(=O)C(CC)C2OC3(C=CC(O)C4(CCC(C)(C5CCC(O)(CC)C(C)O5)O4)O3)C(C)CC2C)O1 (stereo not drawn) | 14.7 min |
| CCCCc1c(C)nc(NCC)[nH]c1=O | 8.39 min |
| CC(C)CC(CN)CC(=O)O (stereo not drawn) | 4.04 min |
| CCCCCc1cc(O)c2c(c1)OC(C)(C)C1CCC(C(=O)O)=CC21 (stereo not drawn) | 12 min |
| CC(C)(C)CC(C)(C)c1ccc(O)cc1 | 12.3 min |
| CCC(C)C1(CC)C(=O)NC(=O)NC1=O (stereo not drawn) | 6.83 min |
| c1coc(-c2nc3ccccc3[nH]2)c1 | 6.8 min |
| CNC(=O)CSP(=S)(OC)OC | 5.25 min |
| O=c1[nH]c2c(c(=O)n1C1CCCCC1)CCC2 | 8.23 min |
| Cc1cccc(C)c1N(Cn1cccn1)C(=O)CS(=O)(=O)O | 6.02 min |
| CC12CCC(O)CC1CCC1C2CCC2(C)C1CCC2(C)O (stereo not drawn) | 14 min |
| CSC1=NC(C)(c2ccccc2)C(=O)N1Nc1ccccc1 (stereo not drawn) | 9.18 min |
| CCC(C)(CC)c1cc(NC(=O)c2c(OC)cccc2OC)on1 | 9.39 min |
| CNC(=O)ON=C(C)C(C)S(C)(=O)=O (stereo not drawn) | 3.67 min |
| COc1cc(OC)nc(NC(=O)NS(=O)(=O)c2ncccc2C(=O)N(C)C)n1 | 4.32 min |
| CC1=C(C(=O)Nc2ccccc2)SCCO1 | 7.42 min |
| CCOC(=O)c1cn2nc(OP(=S)(OCC)OCC)cc2nc1C | 11.4 min |

| Compound | LC retention time |
| --- | --- |
| CC12CCC(=O)C=C1C(O)CC1C2CCC2(C)C(O)CCC12 (stereo not drawn) | 6.61 min |
| CCCN(CCC)c1c([N+](=O)[O-])cc(S(N)(=O)=O)cc1[N+](=O)[O-] | 10.2 min |
| CCOP(=O)(NC(C)C)Oc1ccc(SC)c(C)c1 (stereo not drawn) | 10.4 min |
| CSc1nnc(C(C)(C)C)c(=O)n1N | 7.04 min |
| CC(C)C1(C)N=C(c2nc3ccccc3cc2C(=O)O)NC1=O (stereo not drawn) | 4.85 min |
| CCOP(=S)(NC(C)CC)Oc1cc(C)ccc1[N+](=O)[O-] (stereo not drawn) | 11.2 min |
| COc1cccc(C(=O)NN(C(=O)c2cc(C)cc(C)c2)C(C)(C)C)c1C | 9.55 min |
| CCCCc1c(C)nc(NCC)nc1OS(=O)(=O)N(C)C | 10.5 min |
| Cc1cc(C)cc(C(=O)N(NC(=O)c2ccc3c(c2C)CCCO3)C(C)(C)C)c1 | 9.91 min |
| Oc1ccccc1-c1ccccc1 | 9.09 min |
| NCC(O)c1ccc(O)cc1 (stereo not drawn) | 1.96 min |
| CCC1(CCC(C)C)C(=O)NC(=O)NC1=O | 7.9 min |
| COC(=O)c1ccccc1CS(=O)(=O)NC(=O)Nc1nc(OC)cc(OC)n1 | 7.66 min |
| CCc1cnc(C2=NC(C)(C(C)C)C(=O)N2)c(C(=O)O)c1 (stereo not drawn) | 4.32 min |
| CC(C)C1(C)N=C(c2ncccc2C(=O)O)NC1=O (stereo not drawn) | 3.1 min |
| O=C1CN=C(c2ccccc2)c2c(sc3c2CCCC3)N1 | 9.91 min |
| CNC(=O)Oc1cccc2c1OC(C)(C)C2O (stereo not drawn) | 5.09 min |
| C=CCC1(C(C)CCC)C(=O)NC(=O)NC1=O (stereo not drawn) | 8.39 min |

Other lines, results leading:

| LC retention time | Compound |
| --- | --- |
| 5.11 min | CN(C)C(=O)Nc1ccccc1 |
| 13.3 min | CCCCc1oc2ccc(NS(C)(=O)=O)cc2c1C(=O)c1ccc(OCCCN(CCCC)CCCC)cc1 |
| 11.5 min | CCC(=C(c1ccccc1)c1ccc(OCCN(C)C)cc1)c1ccc(OC)c(O)c1 |
| 3.58 min | CC(C)NCC(O)COc1ccc(CC(=O)O)cc1 (stereo not drawn) |
| 5.06 min | Cc1cn(C2CC(N=[N+]=[N-])C(CO)O2)c(=O)[nH]c1=O (stereo not drawn) |
| 6.06 min | CC(NC(=O)C(N)CC(=O)O)C(=O)NC1C(C)(C)SC1(C)C (stereo not drawn) |
| 6.97 min | COCC(C)N(C(=O)CS(=O)(=O)O)c1c(C)csc1C (stereo not drawn) |
| 6.74 min | COC(=O)C1CC2=CC(=O)CCC2(C)C23OC2CC2(C)C(CCC24CCC(=O)O4)C13 (stereo not drawn) |
| 6.56 min | Cc1ccc2n[nH]nc2c1 |
| 2.88 min | O=C(O)c1ccccc1 |
| 7.69 min | CN(C)CCC=C1c2ccccc2COc2ccc(CC(=O)O)cc21 |
| 4.98 min | COC(=O)C(Cc1ccccc1)NC(=O)C(N)CC(=O)O (stereo not drawn) |
| 4.08 min | CC(C)Nc1nc(N)[nH]c(=O)n1 |
| 5.72 min | Cc1nnc(-c2ccccc2)c(=O)[nH]1 |
| 8.81 min | CC(C)c1ccc(NC(N)=O)cc1 |
| 6.54 min | CCNC(=O)C(C)OC(=O)Nc1ccccc1 (stereo not drawn) |
| 8.86 min | O=C(c1ccc(OCCN2CCCCC2)cc1)c1c(-c2ccc(O)cc2)sc2cc(O)ccc12 |
| 4.89 min | Cc1c(N(C)CS(=O)(=O)O)c(=O)n(-c2ccccc2)n1C |
| 5.7 min | O=C(O)Cc1cccc2ccccc12 |

| LC retention time | Compound |
| --- | --- |
| 10.9 min | Cc1ccc(C)c(OCCCC(C)(C)C(=O)O)c1 |
| 8.96 min | CC(C(=O)O)c1ccc(C(=O)c2cccs2)cc1 (stereo not drawn) |
| 7.15 min | COC(=O)c1ccc(C)cc1C1=NC(C)(C(C)C)C(=O)N1 (stereo not drawn) |
| 9.72 min | CC(C)Cc1ccc(C(C)C(=O)O)cc1 (stereo not drawn) |
| 5.42 min | O=S(=O)(O)c1ccc2ccccc2c1 |
| 5.57 min | CC(C)N(C(=O)C(=O)O)c1ccccc1 |
| 6.37 min | CCOC(=O)CSc1nc(C(C)(C)C)nn1C(=O)N(C)C |
| 11.5 min | CCC1OC(=O)C(C)C(OC2CC(C)(OC)C(O)C(C)O2)C(C)C(OC2OC(C)CC(N(C)C)C2O)C(C)(O)CC(C)C(=NOCOCCOC)C(C)C(O)C1(C)O (stereo not drawn) |
| 7.82 min | CC12CCC3c4ccc(O)cc4CCC3C1CC(O)C2O (stereo not drawn) |
| 6.79 min | CC(C(=O)O)c1cccc(Oc2ccccc2)c1 (stereo not drawn) |
| 6.38 min | CC(C)(C#N)c1cc(Cn2cncn2)cc(C(C)(C)C#N)c1 |
| 6.74 min | COc1ccc2cc(C(C)C(=O)O)ccc2c1 (stereo not drawn) |
| 6.07 min | COCCN(C(=O)C(=O)O)c1c(C)cccc1C |
| 13.7 min | COC1CCC(OC2CC(C3OC(C)(O)C(C)CC3C)OC2C2(C)CCC(C3(C)CCC4(CC(O)C(C)C(C(C)C5OC(O)(CC(=O)O)C(C)C(O)C5OC)O4)O3)O2)OC1C (stereo not drawn) |
| 9.8 min | Cc1ccc(C(C)NC(=O)C(NC(=O)OC(C)C)C(C)C)cc1 (stereo not drawn) |
| 10.9 min | COCCCOc1cc(CC(CC(N)C(O)CC(C(=O)NCC(C)(C)C(N)=O)C(C)C)C(C)C)ccc1OC (stereo not drawn) |
| 9.01 min | CCOc1ccc(NC(=O)OC(C)C)cc1OCC |
| 2.62 min | S=c1nc[nH]c2nc[nH]c12 |
| 5.42 min | CC(C)(C)Nc1nc(N)[nH]c(=O)n1 |

| LC retention time | Compound |
| --- | --- |
| 7.94 min | COC=C(C(=O)O)c1ccccc1Oc1cc(Oc2ccccc2C#N)ncn1 |
| 4.83 min | NC(=O)c1ccccc1O |
| 11.3 min | CCC1OC(=O)C(C)C(OC2CC(C)(OC)C(O)C(C)O2)C(C)C(OC2OC(C)CC(NC)C2O)C(C)(OC)CC(C)C(=O)C(C)C(O)C1(C)O (stereo not drawn) |
| 6.51 min | CCCCc1ncc(C=C(Cc2cccs2)C(=O)O)n1Cc1ccc(C(=O)O)cc1 |
| 8.22 min | Cc1cc(C)n(-c2nc3ccccc3[nH]2)n1 |
| 5.12 min | CC(C)(C)NCC(O)COc1cccc2c1CC(O)C(O)C2 (stereo not drawn) |
| 6.79 min | O=C(O)CCC(=O)c1ccc(-c2ccccc2)cc1 |
| 11.1 min | CC(CCC(=O)O)C1CCC2C3C(O)CC4CC(O)CCC4(C)C3CCC12C (stereo not drawn) |
| 1.46 min | NC(=O)c1ncn(C2OC(CO)C(O)C2O)n1 (stereo not drawn) |
| 1.49 min | O=C1CC(C(=O)O)CC(=O)C1=C(O)C1CC1 (stereo not drawn) |
| 3.98 min | CNC(=C[N+](=O)[O-])NCCSCc1ccc(C[N+](C)(C)[O-])o1 |
| 8.54 min | COc1ccc2cc(CCC(C)=O)ccc2c1 |
| 5.99 min | CCNCC(=O)Nc1c(C)cccc1C |
| 10.8 min | CC12CCC3c4ccc(O)cc4CCC3C1CCC2=O (stereo not drawn) |
| 5.06 min | CC(=O)Nc1ccc(S(=O)(=O)Nc2nc(C)cc(C)n2)cc1 |
| 10.8 min | CC12CCC3c4ccc(O)cc4CCC3C1CCC2O (stereo not drawn) |
| 7.14 min | CN(C)S(=O)(=O)Nc1ccccc1 |
| 3.19 min | CC(N)C12CC3CC(CC(C3)C1)C2 (stereo not drawn) |
| 8.29 min | CCc1cccc(C)c1N(C(=O)C(=O)O)C(C)COC (stereo not drawn) |
